Experimental data reported in US11155586B2, “Cystine knot scaffold platform” (Genentech, Inc., priority 2015, dated 2021).
Positions of bridges follow the written chain, without caps; N, C: chain ends. Residues, ends and D or L forms follow the SMILES beside them.

Assays:
hVEGF-A = molecular target: T1, hVEGF-A (Homo sapiens, UniProt P15692); assay: KDR-CHO VEGF assay to determine cellular IC50 (VEGF mediated Tyr phosphorylation of KDR); assay type: cell-based
T1 sequence (P15692 207-395): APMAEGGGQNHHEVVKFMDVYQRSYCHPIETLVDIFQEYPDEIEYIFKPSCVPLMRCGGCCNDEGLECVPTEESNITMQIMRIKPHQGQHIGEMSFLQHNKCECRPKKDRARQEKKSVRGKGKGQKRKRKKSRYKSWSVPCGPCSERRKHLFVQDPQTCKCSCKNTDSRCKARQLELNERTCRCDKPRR
Description: KDR-CHO cells (CHO cells stably transfected with gD tagged-KDR) were grown in cell growth medium (DMEM/Ham's F-12, 10% diafiltered FBS (GIBCO catalog no. 26400), 25 mM HEPES, 2 mM L-GLUTAMAX™). For VEGF stimulation assay, 5×10^4 cells/well were plated in 100 μl of cell plating medium (DMEM/Ham's F-12, 0.2% BSA, 0.25% diafiltered FBS, 25 mM HEPES, 2 mM L-GLUTAMAX™) in 96-well tissue culture plate and incubated at 37° C. overnight. The medium was replaced with 100 I1 of serum-free cell stimulation medium (DMEM/Ham's F-12, 0.5% BSA, 25 mM HEPES) and cells were incubated at 37° C. for 2 hr. One hour before stimulation, the medium was replaced with 50 I1 of serum-free cell stimulation medium. Concurrently, VEGF (50 ng/ml for hVEGF, 100 ng/ml for mVEGF and rVEGF) was pre-incubated with titrated amount of CKP or anti-VEGF in 50 μl of serum-free cell stimulation medium at 37° C. for 1 hour and added to the cells. The cells were stimulated for 15 min at 37 C and the medium is removed. The cells were lysed with 130 I1 of ice-cold cell lysis buffer (150 mM NaCl, 50 mM HEPES, 0.5% Triton-X 100, HALT protease and phosphatase inhibitor cocktail (ThermoFisher Scientific, Inc. catalog no. 78444), 5 mM EDTA). VEGF mediated Tyr phosphorylation of KDR was determined by ELISA-based assay. Briefly, MAXISORP™ 96 well plates (ThermoFisher Scientific, Inc. catalog no. 439454) were coated with 100 I1 of anti-gD antibody diluted in PBS (1 μg/ml) at 4° C. overnight and washed three times with washing buffer (PBS, 0.05% TWEEN®20, pH 7.4). The plates were blocked with 300 I1 of blocking buffer (PBS, 0.5% BSA) at room temperature for 1 hour followed by washing three times with washing buffer. The above KDR-CHO cell lysate (100 μl) was added to each well and incubated at room temperature for 2 hours. The plates were washed four times with washing buffer followed by incubation with 100 I1 of 0.5 μg/ml biotin-conjugated anti-phosphotyrosine (clone 4G10, Millipore catalog no. 16-103) in blocking buffer at room temperature for 2 hours. After washing four times, the plates were incubated with 100 I1 of HRP-conjugated streptavidin in blocking buffer at room temperature for 30 min. After washing four times, the plates were developed with 100 I1 of TMB substrate (BD Biosciences) at room temperature for 20-30 min and stopped by addition of 50 μl of H2SO4 solution. The optical density of each well was determined using a microplate reader set to 450 nm.

hVEGF(8-109) = molecular target: T2, hVEGF(8-109) (Homo sapiens, UniProt P15692); assay: Spot phage ELISA; assay type: binding; conditions: Table 27
T2 construct: hVEGF(8-109) or BSA were coated on 384-well MAXISORP™ immunoplates
T2 sequence (P15692 214-315): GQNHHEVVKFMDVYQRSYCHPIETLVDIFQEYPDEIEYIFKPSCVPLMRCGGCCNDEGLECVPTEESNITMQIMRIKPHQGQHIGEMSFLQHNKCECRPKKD
Outline: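 After four selection rounds, phage supernatants from single clones (1:3 in PBT) were added to wells coated with hVEGF(8-109) or BSA; binding detected with anti-M13-HRP and TMB. Positive clones had target signal more than 3 times BSA background.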

hVEGF-A (8-109) = molecular target: T3, hVEGF-A (8-109) (Homo sapiens, UniProt P15692); assay: SPR binding assay (BIACORE 3000, 37° C.); conditions: hVEGF-A (8-109), Table 29
T3 sequence (P15692 34-135 isoform P15692-4): T2 sequence (P15692 214-315)
Description: Depending on the format of the assay either a streptavidin sensor (SA) or a dextran-coated (CM5) sensor was utilized as described below.
For use with the SA sensor, VEGF-A was first biotinylated (no more than 2 biotin/VEGF-A) by incubating the protein with EZ-link NHS-PEG4-Biotin (Pierce) in a 1:1.5 molar ratio respectively, in PBS for 2 hours on ice. Reaction was then quenched by addition of 10 molar excess of Glycine pH 8.0 and the sample was buffer exchanged into PBS using an Amicon 0.5 mL 3000 MWCO ultra-centrifugal filters (EMD Millipore). The biotinylation state of the protein was verified by LC-MS analysis. Biotinylated VEGF-A was then captured on the surface until a resonance unit (RU) signal of about ˜400. For immobilization of VEGF-A on CM5 sensor, the surface was first activated with a mixture of N-ethyl-N′-(3-dimethylaminopropyl)carbodiimide hydrochloride and N-hydroxysuccinimide (EDC/NHS) according to the supplier instructions. VEGF-A was then diluted into coupling buffer (0.1 M Acetate Buffer, pH 5.0) and injected until the signal reached about ˜400 RU followed by a wash with 1 M ethanolamine pH 8.0 to quench remaining activated sites.
Following the capture step, a series of the peptide concentrations were prepared in HBS-EP buffer with matching DMSO concentrations to 0.1% and injected at a flow rate of […]. The resulting sensorgrams were then analyzed using a 1:1 binding model to obtain kinetic data and affinities using Scrubber 2.0 (BioLogic Software).

CC[C@H](C)[C@@H]1NC(=O)[C@H](CC(N)=O)NC(=O)[C@@H](N)CSSC[C@@H](C(=O)N[C@H](C(=O)N[C@H]2CSSC[C@@H](C(=O)O)NC(=O)[C@H](CO)NC(=O)[C@H](CCC(N)=O)NC(=O)[C@H](Cc3ccc(O)cc3)NC(=O)[C@H](Cc3ccc(O)cc3)NC(=O)[C@H](CCC(N)=O)NC2=O)C(C)C)NC(=O)CNC(=O)[C@H](C)NC(=O)[C@H](CC(C)C)NC(=O)[C@@H]2CSSC[C@H](NC(=O)CNC(=O)[C@H](Cc3c[nH]c4ccccc34)NC(=O)[C@H](Cc3ccc(O)cc3)NC(=O)[C@@H]3CCCN3C(=O)[C@H](CC(C)C)NC(=O)[C@H](CCSC)NC1=O)C(=O)NCC(=O)N[C@@H](CCCNC(=N)N)C(=O)N[C@@H](CC(=O)O)C(=O)N[C@@H](Cc1ccccc1)C(=O)N[C@@H](CCC(=O)O)C(=O)N2 [9.54.90.F7Y.Δ2G] (H-CNIMLPYWGCGRDFECLAGCVCQYYQSC-OH; disulfide 1-20, 10-16, 22-28; N-terminus and C-terminus assumed)
FOLD IMPROVEMENT RELATIVE TO VARIANT 9.54.90 (hVEGF-A; Table 38, from cellular IC50): 0.44

CC[C@H](C)[C@H](NC(=O)[C@@H]1CSSC[C@H](NC(=O)CN)C(=O)N[C@@H](CC(N)=O)C(=O)N[C@@H]([C@@H](C)CC)C(=O)N[C@@H](CCSC)C(=O)N[C@@H](CC(C)C)C(=O)N2CCC[C@H]2C(=O)N[C@@H](Cc2ccc(O)cc2)C(=O)N[C@@H](Cc2c[nH]c3ccccc23)C(=O)NCC(=O)N[C@H]2CSSC[C@H](NC(=O)[C@H](CCC(=O)O)NC(=O)[C@H](Cc3ccccc3)NC(=O)[C@H](CC(=O)O)NC(=O)[C@H](CCCNC(=N)N)NC(=O)CNC2=O)C(=O)N[C@@H](Cc2ccccc2)C(=O)N[C@@H](Cc2ccc(O)cc2)C(=O)N[C@@H](CCC(=O)O)C(=O)N1)C(=O)N[C@H]1CSSC[C@@H](C(=O)NCC(=O)O)NC(=O)[C@H](CO)NC(=O)[C@H](CCC(N)=O)NC(=O)[C@H](Cc2ccc(O)cc2)NC(=O)[C@H](Cc2ccc(O)cc2)NC(=O)[C@H](CCC(N)=O)NC1=O [9.54.90.62.F8Y] (H-GCNIMLPYWGCGRDFECFYECICQYYQSCG-OH; disulfide 2-21, 11-17, 23-29; N-terminus and C-terminus assumed)
FOLD IMPROVEMENT RELATIVE TO VARIANT 9.54.90 (hVEGF-A; Table 38, from cellular IC50): 1.18

CC[C@H](C)[C@H](NC(=O)[C@@H]1CSSC[C@H](NC(=O)CN)C(=O)N[C@@H](CC(N)=O)C(=O)N[C@@H]([C@@H](C)CC)C(=O)N[C@@H](CCSC)C(=O)N[C@@H](CC(C)C)C(=O)N2CCC[C@H]2C(=O)N[C@@H](Cc2ccccc2)C(=O)N[C@@H](Cc2c[nH]c3ccccc23)C(=O)NCC(=O)N[C@H]2CSSC[C@H](NC(=O)[C@H](CCC(=O)O)NC(=O)[C@H](Cc3ccccc3)NC(=O)[C@H](CC(=O)O)NC(=O)[C@H](CCCNC(=N)N)NC(=O)CNC2=O)C(=O)N[C@@H](CCSC)C(=O)N[C@@H](CO)C(=O)N[C@@H](CC(=O)O)C(=O)N1)C(=O)N[C@H]1CSSC[C@@H](C(=O)NCC(=O)O)NC(=O)[C@H](CO)NC(=O)[C@H](CCC(N)=O)NC(=O)[C@H](Cc2ccc(O)cc2)NC(=O)[C@H](Cc2ccc(O)cc2)NC(=O)[C@H](CCC(N)=O)NC1=O [9.54.90.12] (H-GCNIMLPFWGCGRDFECMSDCICQYYQSCG-OH; disulfide 2-21, 11-17, 23-29; N-terminus and C-terminus assumed)
FOLD IMPROVEMENT RELATIVE TO VARIANT 9.54.90 (hVEGF-A; Table 36, from cellular IC50): 1.125

CC[C@H](C)[C@H](NC(=O)[C@@H]1CSSC[C@H](NC(=O)CN)C(=O)N[C@@H](CC(N)=O)C(=O)N[C@@H]([C@@H](C)CC)C(=O)N[C@@H](CCSC)C(=O)N[C@@H](CC(C)C)C(=O)N2CCC[C@H]2C(=O)N[C@@H](Cc2ccc(O)cc2)C(=O)N[C@@H](Cc2c[nH]c3ccccc23)C(=O)NCC(=O)N[C@H]2CSSC[C@H](NC(=O)[C@H](CCC(=O)O)NC(=O)[C@H](Cc3ccccc3)NC(=O)[C@H](CC(=O)O)NC(=O)[C@H](CCCNC(=N)N)NC(=O)CNC2=O)C(=O)N[C@@H](CCSC)C(=O)N[C@@H](CC(N)=O)C(=O)N[C@@H](CCC(N)=O)C(=O)N1)C(=O)N[C@H]1CSSC[C@@H](C(=O)NCC(=O)O)NC(=O)[C@H](CO)NC(=O)[C@H](CCC(N)=O)NC(=O)[C@H](Cc2ccc(O)cc2)NC(=O)[C@H](Cc2ccc(O)cc2)NC(=O)[C@H](CCC(N)=O)NC1=O [9.54.90.13.F8Y] (H-GCNIMLPYWGCGRDFECMNQCICQYYQSCG-OH; disulfide 2-21, 11-17, 23-29; N-terminus and C-terminus assumed)
FOLD IMPROVEMENT RELATIVE TO VARIANT 9.54.90 (hVEGF-A; Table 38, from cellular IC50): 0.67

CC[C@H](C)[C@H](NC(=O)[C@@H]1CSSC[C@H](NC(=O)CN)C(=O)N[C@@H](CC(N)=O)C(=O)N[C@@H]([C@@H](C)CC)C(=O)N[C@@H](CCSC)C(=O)N[C@@H](CC(C)C)C(=O)N2CCC[C@H]2C(=O)N[C@@H](Cc2ccccc2)C(=O)N[C@@H](Cc2c[nH]c3ccccc23)C(=O)NCC(=O)N[C@H]2CSSC[C@H](NC(=O)[C@H](CCC(=O)O)NC(=O)[C@H](Cc3ccccc3)NC(=O)[C@H](CC(=O)O)NC(=O)[C@H](CCCNC(=N)N)NC(=O)CNC2=O)C(=O)N[C@@H](CCSC)C(=O)N[C@@H](CCC(N)=O)C(=O)N[C@@H]([C@@H](C)O)C(=O)N1)C(=O)N[C@H]1CSSC[C@@H](C(=O)NCC(=O)O)NC(=O)[C@H](CO)NC(=O)[C@H](CCC(N)=O)NC(=O)[C@H](Cc2ccc(O)cc2)NC(=O)[C@H](Cc2ccc(O)cc2)NC(=O)[C@H](CCC(N)=O)NC1=O [9.54.90.25] (H-GCNIMLPFWGCGRDFECMQTCICQYYQSCG-OH; disulfide 2-21, 11-17, 23-29; N-terminus and C-terminus assumed)
FOLD IMPROVEMENT RELATIVE TO VARIANT 9.54.90 (hVEGF-A; Table 36, from cellular IC50): 1.07

CSCC[C@@H]1NC(=O)[C@H](CCC(=O)O)NC(=O)[C@@H]2CSSC[C@H](NC(=O)[C@H](CC(=O)O)NC(=O)[C@H](Cc3ccccc3)NC(=O)[C@H](CC(=O)O)NC1=O)C(=O)N[C@@H](CC(C)C)C(=O)N[C@@H](C)C(=O)NCC(=O)N[C@H](C(=O)N[C@H](C(=O)N[C@H]1CSSC[C@@H](C(=O)NCC(=O)O)NC(=O)[C@H](CO)NC(=O)[C@H](CC(N)=O)NC(=O)[C@H](Cc3ccc(O)cc3)NC(=O)[C@H](Cc3c[nH]c4ccccc34)NC(=O)[C@H](Cc3c[nH]cn3)NC1=O)C(C)C)CSSC[C@H](NC(=O)CN)C(=O)N[C@@H](CC(=O)O)C(=O)N[C@@H](C(C)C)C(=O)N[C@@H](CCSC)C(=O)N[C@@H](CCC(N)=O)C(=O)N1CCC[C@H]1C(=O)N[C@@H](Cc1ccc(O)cc1)C(=O)N[C@@H](Cc1c[nH]c3ccccc13)C(=O)NCC(=O)N2 [VEGF_CKP9.63.44] (H-GCDVMQPYWGCEMDFDCLAGCVCHWYNSCG-OH; disulfide 2-21, 11-17, 23-29 (inferred); N-terminus and C-terminus assumed)
S/N (signal to noise ratio as compared to BSA control) (hVEGF(8-109)): 19.5
ELISA (hVEGF(8-109); loop 2 variants based on VEGF_CKP9.63 framework): 1.7
kd (hVEGF-A (8-109)): 0.11
